# Data published in US6599882B1, “Secretin and secretin pharmaceuticals for treating lactose intolerance” (priority 1999, dated 2003).
# Ends that are not written are not given here.
# Test system: lactose intolerant individuals
substance,measurement,setting,value
"secretin (HSDGTFTSELSRLRDSARLQRLLQGLV; ends and bridges not checked; UniProt P63298 33-59, looked up)",time after infusion until some slight symptoms of lactose intolerance started again,"one severely lactose intolerant individual, one-time infusion",about 3 months
same,symptoms of lactose intolerance after consuming dairy and other lactose containing products,"one-time intravenous infusion, 1 CU per kilogram of body weight over about 1 to 4 minutes, prolonged period of time after treatment, listed as secretion",without experiencing any of the symptoms of lactose intolerance
